Read-outs that look alike come from different tables or passages of the source.
Legend:
PL = conditions: cited from earlier work
[1] = system: RAW264.7 macrophage cells; design: method as in PMID 27514857; conditions: cited from earlier work
[2] = design: method as in PMID 28122265; conditions: cited from earlier work
Pancreatic lipase (PL) = biological target: T1, Pancreatic lipase (PL) (Homo sapiens, UniProt P16233); test: Pancreatic lipase (PL) inhibition, p-nitrophenyl butyrate substrate; format: biochemical; conditions: for IC50: mean ± SD of triplicate, read-out: Enzyme inhibitory activities IC50 ± SD, Pancreatic lipase (PL) (converted)
T1 sequence (P16233 17-465): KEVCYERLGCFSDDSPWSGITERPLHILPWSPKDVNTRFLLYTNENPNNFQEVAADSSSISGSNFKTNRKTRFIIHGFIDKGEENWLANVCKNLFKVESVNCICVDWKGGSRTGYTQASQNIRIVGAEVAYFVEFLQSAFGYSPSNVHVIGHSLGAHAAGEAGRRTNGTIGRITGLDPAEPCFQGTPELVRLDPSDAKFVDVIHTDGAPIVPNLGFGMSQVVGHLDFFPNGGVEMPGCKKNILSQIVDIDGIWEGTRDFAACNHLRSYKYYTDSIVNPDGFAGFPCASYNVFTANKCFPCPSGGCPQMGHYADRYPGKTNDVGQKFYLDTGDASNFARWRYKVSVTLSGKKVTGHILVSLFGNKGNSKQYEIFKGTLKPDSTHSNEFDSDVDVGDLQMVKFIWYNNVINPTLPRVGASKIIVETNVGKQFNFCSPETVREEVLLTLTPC
Experimental: PL inhibition was assessed utilizing p-nitrophenyl butyrate as a substrate. The extracts were diluted using a buffer solution (0.1 M Tris-HCl, pH 8.0) to achieve a final concentration range of 12.5-400 µg/mL. […] An enzyme solution (EC 3.1.1.3, 200 units/mL) and a substrate solution (10 mM) were formulated in a buffer solution.
The experimental procedure was structured in microplate wells A (90 µL enzyme solution, 5 µL substrate solution, 5 µL buffer solution), B (90 µL enzyme solution, 10 µL buffer solution), C (90 µL enzyme solution, 5 µL sample solution, 5 µL substrate solution), and D (90 µL enzyme solution, 5 µL sample solution, 5 µL buffer solution). Microplates were incubated at 37 °C for 15 minutes before to and following the addition of substrates. The absorbance values were measured at 405 nm, and the percentage of pancreatic lipase enzyme inhibition was calculated. All concentrations were conducted in triplicate.
% Pancreatic lipase inhibition = [(A-B)-(C-D)/(A-B)] × 100
The IC50 values of the samples on lipase were derived using the graph equation established by plotting the observed percentage of enzyme inhibition against the logarithm of the concentrations (ordinate and abscissa).

[3] = Ferric reducing antioxidant power (FRAP) assay
Experimental: The Fe(II)-TPTZ complex, generated by the reduction of the TPTZ complex in the presence of antioxidants, has a blue colour and is measured at 595 nm. […] Absorbance measurements were recorded at 595 nm after 20 minutes at room temperature. […] FRAP values were reported as μM Trolox equivalents per gram of material.

[4] = Cupric-reducing antioxidant capacity (CUPRAC) assay
Experimental: CUPRAC assay was performed according to the modified protocol. Methanolic solutions of Trolox, utilized as a reference, were produced at varying concentrations (1000-62.5 μM). Subsequently, 1 mL of NH4CH3COO and 1 mL of CuCl2.2H2O and 1 of mL neocuproine (Nc) solutions were combined, followed by the addition of 0.5 mL of the sample solution (10 mg/mL) and 0.6 mL of distilled water (1.1-x) water into the mixture. Following the mixing of the tubes and incubation in darkness at ambient temperature for 30 minutes, the absorbance of the samples was measured at 450 nm. The antioxidant capacity of the samples was quantified as TEAC (μM) by comparison with Trolox, the reference chemical.

[5] = system: hypercholesterolemic rats; design: method as in PMID 39615784; conditions: 100 mg/kg, hypercholesterolemic rats on a high-fat diet; cited from earlier work
[6] = system: hypercholesterolemic hamsters; conditions: cited from earlier work
3T3-L1 adipocytes = conditions: cited from earlier work

| SMILES | PL IC50 (PL) | lipid accumulation [1] | radical scavenging ability [2] | IC50 (Pancreatic lipase (PL)) | FRAP [3] | FRAP (iron reducing antioxidant power) ([3]; sample 10 mg/mL) | CUPRAC [4] | CUPRAC (copper reducing antioxidant power) ([4]; sample 10 mg/mL) | PL inhibitory activity IC50 (PL) | lipase inhibitory activity IC50 (PL) | IC50 (PL; read-out: lipase inhibitory activity IC50) | cholesterol and triglyceride levels [5] | inhibition at 100 µg/mL (Pancreatic lipase (PL); read-out: PL inhibition) | PL inhibition (PL; 100 µg/mL) | PL inhibition (PL; 4 mg/mL) | PL inhibition (PL; first value of two) | PL inhibition (PL; second value of two) | cholesterol absorption and plasma cholesterol levels [6] | adipogenesis (intracellular triglyceride content and lipid accumulation) (3T3-L1 adipocytes) | cytotoxicity (3T3-L1 adipocytes) |
| --- | --- | --- | --- | --- | --- | --- | --- | --- | --- | --- | --- | --- | --- | --- | --- | --- | --- | --- | --- | --- |
| O=C(O)C(O)Cc1ccc(O)c(O)c1 (stereo not shown) [Danshensu, 3,4-dihydroxyphenyl lactic acid] | 65.160 ± 4.443 µg/mL | reduce lipid accumulation | equivalent to that of quercetin |  |  |  |  |  |  |  |  |  |  |  |  |  |  |  |  |  |
| O=C(/C=C/c1ccc(O)c(O)c1)O[C@H](Cc1ccc(O)c(O)c1)C(=O)O [Rosmarinic acid] |  |  | equivalent to that of quercetin | 134 µM | 1274.400 ± 1.633 µM TEAC | 1274.400 ± 1.633 µM Trolox equivalent/gram | 1801.389 ± 5.500 µM TEAC | 1801.389 ± 5.500 µM Trolox equivalent/gram | 125.2 µg/mL | 49.421 ± 1.448 µg/mL | 62.8 ± 2.7 µM | improve cholesterol and triglyceride levels comparably to simvastatin |  |  |  |  |  |  |  |  |
| CC[C@H](CC[C@@H](C)[C@H]1CC[C@H]2[C@@H]3CC=C4C[C@@H](O)CC[C@]4(C)[C@H]3CC[C@]12C)C(C)C [β-sitosterol] |  |  |  | 101 µM |  |  |  |  |  |  |  |  | 68.5% | 79.1 ± 11.3% | 60.67% ± 0.53 | 2.99 ± 0.80% | 8.80 ± 4.15% | decrease cholesterol absorption and plasma cholesterol levels | efficiently prevented adipogenesis | without including notable cytotoxicity |
